Measurements published in patent US11952328B2, “Selective ship inhibitors for treating disease” (THE RESEARCH FOUNDATION FOR THE STATE UNIVERSITY OF NEW YORK, priority 2018, dated 2024).

How the values were obtained:
SHIP1 = molecular target: T1, SHIP1 (Homo sapiens, UniProt Q92835); settings: Brooks et al. 2010; cited from earlier work
T1 sequence (Q92835 1-1189): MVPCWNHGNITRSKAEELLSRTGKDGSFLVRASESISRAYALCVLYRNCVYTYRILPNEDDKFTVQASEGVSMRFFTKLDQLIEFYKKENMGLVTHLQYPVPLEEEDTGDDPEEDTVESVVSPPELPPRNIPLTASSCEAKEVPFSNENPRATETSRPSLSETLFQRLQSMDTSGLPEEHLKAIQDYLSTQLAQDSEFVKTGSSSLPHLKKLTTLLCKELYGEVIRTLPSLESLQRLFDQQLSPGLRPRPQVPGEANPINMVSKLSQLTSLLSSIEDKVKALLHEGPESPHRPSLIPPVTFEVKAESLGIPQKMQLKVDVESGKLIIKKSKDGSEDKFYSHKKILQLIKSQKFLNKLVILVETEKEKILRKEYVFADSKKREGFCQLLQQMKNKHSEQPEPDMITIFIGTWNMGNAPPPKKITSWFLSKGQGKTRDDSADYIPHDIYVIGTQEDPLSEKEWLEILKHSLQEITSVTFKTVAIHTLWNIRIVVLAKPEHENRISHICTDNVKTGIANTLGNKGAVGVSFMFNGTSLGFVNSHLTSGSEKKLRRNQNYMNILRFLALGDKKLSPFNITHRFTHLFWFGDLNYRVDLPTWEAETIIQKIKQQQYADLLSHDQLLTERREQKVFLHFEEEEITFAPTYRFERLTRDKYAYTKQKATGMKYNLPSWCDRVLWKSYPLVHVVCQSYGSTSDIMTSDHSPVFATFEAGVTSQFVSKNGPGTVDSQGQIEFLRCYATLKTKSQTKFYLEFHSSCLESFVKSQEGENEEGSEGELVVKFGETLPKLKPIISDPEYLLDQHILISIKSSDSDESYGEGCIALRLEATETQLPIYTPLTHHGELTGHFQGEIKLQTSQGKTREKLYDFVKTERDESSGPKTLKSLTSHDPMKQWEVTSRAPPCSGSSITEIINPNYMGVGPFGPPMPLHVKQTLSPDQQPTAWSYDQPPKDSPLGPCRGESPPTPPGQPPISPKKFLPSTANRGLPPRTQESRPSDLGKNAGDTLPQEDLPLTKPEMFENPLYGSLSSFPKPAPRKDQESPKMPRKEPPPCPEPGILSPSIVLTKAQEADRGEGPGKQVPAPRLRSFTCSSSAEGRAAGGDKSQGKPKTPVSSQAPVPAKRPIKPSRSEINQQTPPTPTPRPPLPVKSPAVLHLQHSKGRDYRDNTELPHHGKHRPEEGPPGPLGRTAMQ

tumor = assay: Adoptive transfer of hematolymphoid cells from 3AC treated long-term survivors, survival after tumor challenge; type: in vivo, mice; settings: cells from tumor challenged, 3AC treated long-term surviving donor vs naive donor; recipients not treated
Text: To test for continued presence of such immunity, hematolymphoid cells were adoptively transferred from either a nave donor or from a tumor challenged, 3AC treated, long-term surviving (primed) donor into nave C57BL/6 hosts.

RMA-Rael cells = assay: Overall survival of RMA-Rael tumor challenged hosts (Kaplan-Meier); type: in vivo, mice
Method: FIGS. 6A-6I show the survival of tumor bearing mice treated with a SHIP inhibitor. […] Hosts were treated on the day of tumor challenge and the following day as in FIG. 1. The 2-day treatment course was repeated each week for the duration of survival. […] Mice received either NK cell depleting, anti-NK1.1 antibody (PK136), or isotype control antibody prior to tumor challenge (5×10^5 RMA-Rael). The hosts received SHIP inhibitor two consecutive days each week until death. […] The hosts were treated on the day of tumor challenge and the following day as in FIG. 1. The 2-day treatment course was repeated each week for the duration of survival.
The most clinically relevant endpoint in any cancer therapy study is not a measured decrease in tumor burden, but instead, a significant increase in survival promoted by the treatment.
In order to further define 3AC′s capacity to control malignancy through immunomodulatory effects the capacity of 3AC to promote resistance of NSG, TcRa^−/− and NK cell depleted hosts to RMA-Rael tumor challenge was examined. As before, mice received treatment with 3AC or vehicle for two consecutive days each week followed by a five-day cessation of treatment to prevent disarming and/or exhaustion. This treatment strategy was continued indefinitely and survival was monitored (FIG. 6A). To confirm that, in addition to the chemotherapeutic effect documented in FIG. 5, 3AC-induced enhanced-NK and -T cell activity is important for the survival benefit following tumor challenge, NSG mice (mice deficient of all lymphocyte lineages) were challenged.
To determine if T cells are required for the 3AC-mediated survival benefit, the same expirement using TcRa^−/− hosts that lack a TcR-ab^+ T cell compartment was repeated. […] To directly test the requirement for an intact NK cell compartment for 3AC-mediated increased survival after tumor challenge, the experiment as described in FIG. 6A were repeated challenging C57BL/6 hosts that were first depleted of
NK cells. Here, prior to tumor challenge, hosts were injected with either NK cell depleting anti-NK1.1 antibody (C57BL/6-DNK) or with antibody isotype control (C57BL/6-iso) (FIG. 6B).
The SHIP1 inhibitor 3AC was then tested in a genetic model in which the molecular target, SHIP1, was absent in a key target population of T cells, which are required for protection in the RMA-Rael lymphoma challenge model. […] Thus, SHIP inhibitor protection after tumor challenge is lost when the T cell compartment lacks the molecular target (SHIP1) in T cells.
There are two paralogs of SHIP: SHIP1 which is expressed in a limited range of tissues including hematopoietic cells, and SHIP2 which is expressed by a wide array of cell types. To determine if SHIP2 may also play a role in host defense against malignancy as described above tumor bearing mice were treated with small-molecule inhibitors against SHIP2 as well. […] Stem Cells. (2015); 33: 848-858; Hoekstra, E. et al., Lipid phosphatase SHIP2 functions as oncogene in colorectal cancer by regulating PKB activation. Oncotarget. (2016) 7: 73525-73540). Like 3AC, pan-SHIP1/2 inhibitors such as K118 are also cytotoxic for RMA-Rael cells in vitro. The pan SHIP1/2 inhibitory compounds K118 and K149 were compared to the SHIP1 selective compound 3AC.
Simultaneous inhibition of both SHIP1and SHIP2 may be deleterious to the immune response promoted by 3AC. […] In the study, the SHIP1 selective inhibitor 3AC that provides for protection after RMA-Rael challenge was simulataneously co-administered.

CC(C)CCC[C@@H](C)[C@H]1CC[C@H]2[C@@H]3CCC4C[C@H](N)CC[C@]4(C)[C@H]3CC[C@]12C (stereo partly drawn) [Compound 3AC, 3-α-aminocholestane]
selectivity for SHIP1 (SHIP1): high degree of selectivity
survival of recipients of primed hematolymphoid cells (tumor): significantly increased survival
overall survival (RMA-Rael cells; 3AC-treated NK cell depleted C57BL/6 (anti-NK1.1) vs 3AC-treated isotype control hosts): significantly compromised survival
long-term survival (RMA-Rael cells; C57BL/6 hosts, 1×10^5 RMA-Rael, FIG. 6H): long-term survival in a subset of hosts
overall survival (protection) (RMA-Rael cells; C57BL/6 hosts, 1×10^5 RMA-Rael, FIG. 6H, vs vehicle): extended survival
overall survival (RMA-Rael cells; C57BL/6 hosts, 5×10^5 RMA-Rael, two consecutive days each week, five-day cessation, vs vehicle): significantly increased survival
overall survival (RMA-Rael cells; CD4CreSHIP flox/flox mice treated with 3AC vs vehicle-treated SHIP+/flox mice): comparable survival
median survival (RMA-Rael cells; NSG mice, pulsatile dosing, vs vehicle-treated NSG): very modest increase
overall survival (RMA-Rael cells; SHIP flox/flox mice treated with 3AC vs 3AC-treated CD4CreSHIP flox/flox and vehicle-treated SHIP+/flox): enhanced survival
overall survival (RMA-Rael cells; TcRa−/− hosts, pulsatile dosing, compared to 3AC treatment of C57BL/6 hosts): did not prolong survival
long term survival (RMA-Rael cells; subpopulation of 3AC treated C57BL/6 mice, pulsatile dosing, tumor uniformly lethal in vehicle mice): durable, long term survival without any evidence of tumor burden
